The values below come from patent publication US9399623B2, “Quinoline derivatives and their use in neurodegenerative diseases” (Merck Patent GmbH, priority 2014, dated 2016).

Assay [1] has as its target T1, P2X7 (Homo sapiens, UniProt Q99572).
T1 sequence (Q99572 1-595): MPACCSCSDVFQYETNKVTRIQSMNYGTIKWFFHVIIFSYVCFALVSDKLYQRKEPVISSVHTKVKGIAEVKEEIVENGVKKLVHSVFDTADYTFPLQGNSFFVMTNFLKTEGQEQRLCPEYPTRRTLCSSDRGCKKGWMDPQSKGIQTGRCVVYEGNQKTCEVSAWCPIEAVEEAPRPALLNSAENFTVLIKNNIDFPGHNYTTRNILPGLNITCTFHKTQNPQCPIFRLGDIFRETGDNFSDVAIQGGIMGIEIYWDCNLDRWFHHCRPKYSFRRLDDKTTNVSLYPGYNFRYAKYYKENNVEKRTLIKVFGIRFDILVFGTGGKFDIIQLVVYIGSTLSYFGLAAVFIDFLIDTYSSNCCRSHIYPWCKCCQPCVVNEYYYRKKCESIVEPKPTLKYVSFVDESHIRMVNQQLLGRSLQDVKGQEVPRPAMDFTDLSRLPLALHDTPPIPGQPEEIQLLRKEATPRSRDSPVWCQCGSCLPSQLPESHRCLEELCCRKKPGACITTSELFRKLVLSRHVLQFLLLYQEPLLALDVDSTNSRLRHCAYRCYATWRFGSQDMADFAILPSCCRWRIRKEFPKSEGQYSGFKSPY
The assay can be described thus: Pore permeation assay (YO PRO dye uptake, BzATP-induced). Type of assay: cell-based. Further details: expressed in transfected cells; host or cells: HEK293. The note with it: HEK293 transfected with human P2X7 receptor; YO PRO dye 1 uM, BzATP 10 uM; read-out: hP2X7 IC50. The essentials: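 HEK293 cells overexpressing human P2X7, plated overnight at 37 C, preincubated 20 min at room temperature with compound (10-point series from 2.5 uM) in HEPES-buffered saline pH 7.4 with 0.1 mM CaCl2. Then 10 uM BzATP plus 1 uM YO PRO added; dye uptake read by fluorescence after 30 min at room temperature.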

In assay [2] the target is T1, P2X7. The assay can be described thus: IL-1β release assay in THP-1 cells (sandwich ELISA). Type of assay: cell-based. Further details: release of mature IL-1β in the culture medium of THP-1 cells; endogenous in cells; host or cells: THP-1 cells (PMA-differentiated, LPS-primed). The note with it: PMA, LPS primed, stimulated with 0.8 mM BzATP, mature IL-1β release, read-out: hTHP-1/IL-ib IC50. The essentials:
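THP-1 cells differentiated with 0.5 μM PMA and primed 4 h with 10 ng/ml LPS at 37° C, then preincubated 20 min with compound. Stimulated with 0.8 mM BzATP for 30 min; mature IL-1β released into the supernatant quantified by sandwich ELISA.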

With `O=C(NCC1CCC(F)(F)CC1)c1c(Cl)ccc2nc(N3CC[C@@H](CO)C3)ccc12` [Compound 12, 6-Chloro-2-((R)-3-hydroxymethyl-pyrrolidin-1-yl)-quinoline-5-carboxylic acid (4,4-difluoro-cyclohexylmethyl)-amide], the IC50 on P2X7 [1] is under 10 nM; on P2X7 [2], 101 to 500 nM.

Turning to `O=C(NCC1(O)CCC(F)(F)CC1)c1c(Cl)ccc2ncccc12` [Compound 76], the figures for the IC50 at P2X7 [1] and at P2X7 [2] were 101 to 500 nM and 10 to 100 nM, respectively.

On to `O=C(NCC1CCC(F)(F)CC1)c1c(Cl)ccc2nc(N3CC[C@@H](CCO)C3)ccc12` [Compound 26, 6-Chloro-2-((S)-3-hydroxyethyl-pyrrolidin-1-yl)-quinoline-5-carboxylic acid (4,4-difluoro-cyclohexylmethyl)-amide], for which the IC50 at P2X7 [1] was 10 to 100 nM; at P2X7 [2] it was 101 to 500 nM.

Take `CC(=O)NC1CCN(c2ccc3c(C(=O)NCC4CCC(F)(F)CC4)c(Cl)ccc3n2)C1` (stereo not shown) [Compound 67, 2-(3-Acetylamino-pyrrolidin-1-yl)-6-chloro-quinoline-5-carboxylic acid (4,4-difluoro-cyclohexylmethyl)-amide]: the IC50 lay in the range of 10 to 100 nM on P2X7 [1] and 101 to 500 nM on P2X7 [2].

As for `O=C(NCC1CCCC(F)(F)C1)c1c(Cl)ccc2nc(N3CC[C@H](F)C3)ccc12` (stereo partly drawn) [Compound 3, 6-Chloro-2-((S)-3-fluoropyrrolidin-1-yl)-quinoline-5-carboxylic acid (3,3-difluoro-cyclohexylmethyl)-amide], the IC50 on P2X7 [1] is under 10 nM; on P2X7 [2] it was 101 to 500 nM.

For `NC1CCN(c2ccc3c(C(=O)NCC4CCC(F)(F)CC4)c(Cl)ccc3n2)C1` (stereo not shown) [Compound 18], the figures for the IC50 on P2X7 [1] and on P2X7 [2] were under 10 nM and 10 to 100 nM, respectively.

Consider `CN(C)C1CCN(c2ccc3c(C(=O)NCC4CCC(F)(F)CC4)c(Cl)ccc3n2)C1` (stereo not shown) [Compound 52], for which the IC50 at P2X7 [1] was in the range of 10 to 100 nM; on P2X7 [2] it was 101 to 500 nM.

With `O=C(NC[C@]1(O)CCCC(F)(F)C1)c1c(Cl)ccc2nc(N3CCC(F)(F)C3)ccc12` [Compound 80, 6-Chloro-2-(3,3-difluoropyrrolidin-1-yl)-quinoline-5-carboxylic acid ((S)-3,3-difluoro-1-hydroxycyclohexylmethyl)-amide], the IC50 is 101 to 500 nM on P2X7 [1] and over 1000 nM at P2X7 [2].

As for `O=C(NCC1CCC(F)(F)CC1)c1c(Cl)ccc2nc(N3CC[C@H](CO)C3)ccc12` [Compound 29, 6-Chloro-2-((S)-3-hydroxymethyl-pyrrolidin-1-yl)-quinoline-5-carboxylic acid (4,4-difluoro-cyclohexylmethyl)-amide], the IC50 on P2X7 [1] and at P2X7 [2] was 10 to 100 nM in each case.

As to `O=C(NCC1(O)CCCC(F)(F)C1)c1c(Cl)ccc2nc(N3CCC(F)C3)ccc12` (stereo not shown) [Compound 38, 6-Chloro-2-(3-fluoropyrrolidin-1-yl)-quinoline-5-carboxylic acid (3,3-difluoro-1-hydroxycyclohexylmethyl)-amide], the IC50 at P2X7 [1] and at P2X7 [2] was 10 to 100 nM in each case.

With `O=C(NCC1(O)CCCC(F)(F)C1)c1c(Cl)ccc2nc(N3CCC(F)(F)C3)ccc12` (stereo not shown) [Compound 46, 6-Chloro-2-(3,3-difluoropyrrolidin-1-yl)-quinoline-5-carboxylic acid (3,3-difluoro-1-hydroxycyclohexylmethyl)-amide], the IC50 on P2X7 [1] and on P2X7 [2] was 10 to 100 nM in each case.

In the case of `O=C(NCC1CCCC(F)(F)C1)c1c(Cl)ccc2nc(N3CCC(CCO)C3)ccc12` (stereo not shown) [Compound 63, 6-Chloro-2-(3-hydroxyethyl-pyrrolidin-1-yl)-quinoline-5-carboxylic acid (3,3-difluoro-cyclohexylmethyl)-amide], the IC50 at P2X7 [1] was in the range of 10 to 100 nM; on P2X7 [2], 101 to 500 nM.

On to `O=C(NCC1CCC(F)(F)CC1)c1c(Cl)ccc2nc(NCCO)ccc12` [Compound 66, 6-Chloro-2-(2-hydroxy-ethylamino)-quinoline-5-carboxylic acid (4,4-difluoro-cyclohexyl methyl)-amide], for which the IC50 on P2X7 [1] and at P2X7 [2] was 10 to 100 nM throughout.

On to `O=C(NCC1CCC(F)(F)CC1)c1c(Cl)ccc2nc(N3CC[C@@H](F)C3)ccc12` [Compound 33, 6-Chloro-2-((R)-3-fluoropyrrolidin-1-yl)-quinoline-5-carboxylic acid (4,4-difluoro-cyclohexylmethyl)-amide], for which the IC50 on P2X7 [1] lay within 10 to 100 nM; at P2X7 [2], 101 to 500 nM.
